Source: patent US4178442A, “Novel cinnamoyles piperazines and homopiperazines, the method of preparing them and their application in therapeutics” (Delalande S. A., priority 1977, dated 1979)
Read-outs that look alike come from different tables or passages of the source.

What was measured:
[1] = in vivo; settings: iv; for mortality: read-out: Toxicity (Mortality); for LD50: read-out: Toxicity: LD50
Excerpt: *LD50 or percentage of mortality which is given between brackets

[2] = system: anaesthetized dog; test: Antiangorous activity on anaesthetized dog: consumption of oxygen in the left ventricule and cardiac effort (KATZ's index); type: in vivo; settings: for inhibition in vivo at 1.25 mg/kg / inhibition in vivo at 2.5 mg/kg / inhibition in vivo at 0.625 mg/kg / inhibition in vivo at […]: Canis lupus familiaris, iv; for inhibition in vivo at […]: 1.5 mg/kg i.v. slow perfusion
How it was run: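 Katz index taken as mean arterial pressure multiplied by ECG (D2) heart rate, and myocardial O2 use as coronary sinus flow via modified Morawitz cannula times coronary arteriovenous O2 difference. Animals: pentobarbital-anaesthetized dogs (30 mg/kg i.v.), test compounds infused slowly intravenously.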

[3] = 2.5 mg/kg i.v. slow perfusion, read-out: Diminution in consumption of O2
[4] = 2.5 mg/kg i.v. slow perfusion, read-out: Diminution in the cardiac effort (IK)
[5] = 0.625 mg/kg i.v. slow perfusion

Structure (SMILES) | mortality ([1]; 400 mg/kg i.v.) [%] | Diminution in consumption of O2: in time ([2]; 2.5 mg/kg i.v. slow perfusion) [min] | inhibition in vivo at 2.5 mg/kg [2, 3] [%] | inhibition in vivo at 2.5 mg/kg [2, 4] [%] | Diminution in the cardiac effort (IK): in time ([2]; 2.5 mg/kg i.v. slow perfusion) [min] | LD50 [1] [mg/kg] | other results
COc1cc(/C=C/C(=O)N2CCN(CC(O)COc3ccc(OC(C)=O)c4c3OCCO4)CC2)cc(OC)c1OC (centres unmarked) [780 004] | 10 |  |  |  |  |  | Diminution in consumption of O2: in time ([2]; 1.25 mg/kg i.v. slow perfusion): 30 min; Diminution in the cardiac effort (IK): in time ([2]; 1.25 mg/kg i.v. slow perfusion): 15 min; inhibition in vivo at 1.25 mg/kg ([2]; 1.25 mg/kg i.v. slow perfusion, read-out: Diminution in consumption of O2): 22%; inhibition in vivo at 1.25 mg/kg ([2]; 1.25 mg/kg i.v. slow perfusion, read-out: Diminution in the cardiac effort (IK)): 14%
CNC(=O)Nc1ccc(OCCCN2CCN(C(=O)/C=C/c3cc(OC)c(OC)c(OC)c3)CC2)c2c1OCCO2 [780 040] | 30 | 15 | 59 | 9 |  |  | 
COc1cc(/C=C/C(=O)N2CCN(CC(O)COc3ccc(NC(C)=O)c4c3CCCC4)CC2)cc(OC)c1OC (centres unmarked) [780 044] | 10 | 30 | 49 | 36 | 15 |  | 
COc1cc(/C=C/C(=O)N2CCN(CC(O)COc3ccc(O)c4c3OCCO4)CC2)cc(OC)c1OC (centres unmarked) [780 120, 1-[3-(4-hydroxy-2,3-ethylenedioxy)phenoxy-2-hydroxy]propyl-4-(3,4,5-trimethoxy-cinnamoyl)piperazine, hydrated chlorhydrate] |  | 30 | 65 | 29 | 15 | 340 | 
COc1cc(/C=C/C(=O)N2CCN(CC(O)COc3cccc4c3OCO4)CC2)cc(OC)c1OC (centres unmarked) [780 138] |  | 45 | 46 | 19 | 30 | 150 | 
COc1cc(/C=C/C(=O)N2CCN(CC(O)COc3ccc(C(C)=O)c4c3OCO4)CC2)cc(OC)c1OC (centres unmarked) [780 308] | 10 | 45 | 49 | 37 | 45 |  | 
COc1cc(/C=C/C(=O)N2CCN(CC(O)COc3ccc(NC(C)=O)c4c3OCCCO4)CC2)cc(OC)c1OC (centres unmarked) [780 393] | 10 |  |  |  |  |  | Diminution in consumption of O2: in time [2, 5]: 30 min; Diminution in the cardiac effort (IK): in time [2, 5]: 30 min; inhibition in vivo at 0.625 mg/kg ([2]; 0.625 mg/kg i.v. slow perfusion, read-out: Diminution in consumption of O2): 24%; inhibition in vivo at 0.625 mg/kg ([2]; 0.625 mg/kg i.v. slow perfusion, read-out: Diminution in the cardiac effort (IK)): 45%
CNC(=O)Nc1ccc(OCC(O)CN2CCN(C(=O)/C=C/c3cc(OC)c(OC)c(OC)c3)CC2)c2c1OCO2 (centres unmarked) [780 409] | 20 | 90 | 54 | 43 | 90 |  | 
COc1cc(/C=C/C(=O)N2CCCN(CC(O)COc3ccc(C(C)=O)cc3)CC2)cc(OC)c1OC (centres unmarked) [780 415] |  | 30 | 29 | 10 | 30 | 305 | 
Cc1cccc(C)c1NC(=O)CN1CCN(CCCC(c2ccc(F)cc2)c2ccc(F)cc2)CC1 [LIDOFLAZINE, reference compound] |  |  |  |  |  |  | mortality ([1]; 25 mg/kg i.v.): 50%; inhibition in vivo at […] ([2]; read-out: Diminution in consumption of O2): 48%; inhibition in vivo at […] ([2]; read-out: Diminution in the cardiac effort (IK)): 40%
